According to patent publication US11053204B2, “Pyrimidinyloxy benzene derivatives as herbicides” (FMC Corporation, priority 2015, dated 2021):

Experiments:
Assay type in all cases: in vivo
[1] = tested on: Italian ryegrass (Lolium multiflorum); experiment: Test A preemergence, visual injury rating; conditions: 0 to 100 scale (0 no effect, 100 complete control); for Plant response rating, Ryegrass, Italian: 125 g ai/ha; for Ryegrass, Italian plant response rating: 500 g ai/ha
Summary of the method: (§1)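 Visual 0–100 rating (100 = complete control) taken about 10 d post-treatment relative to untreated checks. Preemergence: directed soil spray on sown loam/sand pots. Postemergence: seedlings 2–10 cm, 1–2 leaf. Non-phytotoxic solvent formulation with surfactant.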

[2] = tested on: barnyardgrass (Echinochloa crus-galli); experiment: Test A preemergence, visual injury rating; conditions: 0 to 100 scale (0 no effect, 100 complete control); for Plant response rating, Barnyardgrass: 125 g ai/ha; for Barnyardgrass plant response rating: 500 g ai/ha
Summary of the method: as §1

[3] = tested on: giant foxtail (Setaria faberii); experiment: Test A preemergence, visual injury rating; conditions: 0 to 100 scale (0 no effect, 100 complete control); for Plant response rating, Foxtail, Giant: 125 g ai/ha; for Foxtail, Giant plant response rating: 500 g ai/ha
Summary of the method: as §1

[4] = tested on: kochia (Kochia scoparia); experiment: Test A preemergence, visual injury rating; conditions: 0 to 100 scale (0 no effect, 100 complete control); for Plant response rating, Kochia: 125 g ai/ha; for Kochia plant response rating: 500 g ai/ha
Summary of the method: as §1

[5] = tested on: pigweed (Amaranthus retroflexus); experiment: Test A preemergence, visual injury rating; conditions: 0 to 100 scale (0 no effect, 100 complete control); for Plant response rating, Pigweed: 125 g ai/ha; for Pigweed plant response rating: 500 g ai/ha
Summary of the method: as §1

[6] = tested on: ragweed (common ragweed, Ambrosia elatior); experiment: Test A preemergence, visual injury rating; conditions: 0 to 100 scale (0 no effect, 100 complete control); for Plant response rating, Ragweed: 125 g ai/ha; for Ragweed plant response rating: 500 g ai/ha
Summary of the method: as §1

[7] = tested on: Italian ryegrass (Lolium multiflorum); experiment: Test A postemergence, visual injury rating; conditions: 0 is no effect, 100 is complete control; for Ryegrass, Italian plant response rating: 125 g ai/ha, 0 to 100 scale, approximately 10 days; for Ryegrass, Italian plant response rating (0 to 100 scale): 500 g ai/ha
Summary of the method: as §1

[8] = tested on: barnyardgrass (Echinochloa crus-galli); experiment: Test A postemergence, visual injury rating; conditions: 0 is no effect, 100 is complete control; for Barnyardgrass plant response rating: 125 g ai/ha, 0 to 100 scale, approximately 10 days; for Barnyardgrass plant response rating (0 to 100 scale): 500 g ai/ha
Summary of the method: as §1

[9] = tested on: blackgrass (Alopecurus myosuroides); experiment: Test A postemergence, visual injury rating; conditions: 0 is no effect, 100 is complete control; for Blackgrass plant response rating: 125 g ai/ha, 0 to 100 scale, approximately 10 days; for Blackgrass plant response rating (0 to 100 scale): 500 g ai/ha
Summary of the method: as §1

[10] = tested on: corn (Zea mays); experiment: Test A postemergence, visual injury rating; conditions: 0 is no effect, 100 is complete control; for Corn plant response rating: 125 g ai/ha, 0 to 100 scale, approximately 10 days; for Corn plant response rating (0 to 100 scale): 500 g ai/ha
Summary of the method: as §1

[11] = tested on: galium (catchweed bedstraw, Galium aparine); experiment: Test A postemergence, visual injury rating; conditions: 0 is no effect, 100 is complete control; for Galium plant response rating: 125 g ai/ha, 0 to 100 scale, approximately 10 days; for Galium plant response rating (0 to 100 scale): 500 g ai/ha
Summary of the method: as §1

[12] = tested on: giant foxtail (Setaria faberii); experiment: Test A postemergence, visual injury rating; conditions: 0 is no effect, 100 is complete control; for Foxtail, Giant plant response rating: 125 g ai/ha, 0 to 100 scale, approximately 10 days; for Foxtail, Giant plant response rating (0 to 100 scale): 500 g ai/ha
Summary of the method: as §1

[13] = tested on: kochia (Kochia scoparia); experiment: Test A postemergence, visual injury rating; conditions: 0 is no effect, 100 is complete control; for Kochia plant response rating: 125 g ai/ha, 0 to 100 scale, approximately 10 days; for Kochia plant response rating (0 to 100 scale): 500 g ai/ha
Summary of the method: as §1

[14] = tested on: pigweed (Amaranthus retroflexus); experiment: Test A postemergence, visual injury rating; conditions: 0 is no effect, 100 is complete control; for Pigweed plant response rating: 125 g ai/ha, 0 to 100 scale, approximately 10 days; for Pigweed plant response rating (0 to 100 scale): 500 g ai/ha
Summary of the method: as §1

[15] = tested on: ragweed (common ragweed, Ambrosia elatior); experiment: Test A postemergence, visual injury rating; conditions: 0 is no effect, 100 is complete control; for Ragweed plant response rating: 125 g ai/ha, 0 to 100 scale, approximately 10 days; for Ragweed plant response rating (0 to 100 scale): 500 g ai/ha
Summary of the method: as §1

[16] = tested on: wheat (Triticum aestivum); experiment: Test A postemergence, visual injury rating; conditions: 0 is no effect, 100 is complete control; for Wheat plant response rating: 125 g ai/ha, 0 to 100 scale, approximately 10 days; for Wheat plant response rating (0 to 100 scale): 500 g ai/ha
Summary of the method: as §1

[17] = tested on: barnyardgrass (Echinochloa crus-galli); experiment: Test B flooded paddy test, plant response rating; conditions: 250 g ai/ha; Flood; scale of 0 to 100 where 0 is no effect and 100 is complete control; 13 to 15 days
Summary of the method: (§2)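 Pots were flooded to 3 cm above the soil surface at treatment, compound applied directly to the paddy water, and that depth held throughout. Plants were kept in a greenhouse for 13 to 15 days, then visually rated against untreated controls.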

[18] = tested on: ducksalad (Heteranthera limosa); experiment: Test B flooded paddy test, plant response rating; conditions: 250 g ai/ha; Flood; scale of 0 to 100 where 0 is no effect and 100 is complete control; 13 to 15 days
Summary of the method: as §2

[19] = tested on: rice (Oryza sativa); experiment: Test B flooded paddy test, plant response rating; conditions: 250 g ai/ha; Flood; scale of 0 to 100 where 0 is no effect and 100 is complete control; 13 to 15 days
Summary of the method: as §2

[20] = tested on: sedge, umbrella (small-flower umbrella sedge, Cyperus difformis); experiment: Test B flooded paddy test, plant response rating; conditions: 250 g ai/ha; Flood; scale of 0 to 100 where 0 is no effect and 100 is complete control; 13 to 15 days
Summary of the method: as §2

[21] = tested on: ragweed (common ragweed, Ambrosia elatior); experiment: Test C preemergence, plant response rating; conditions: Preemergence
Summary of the method: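 Preemergence: seeds sown in loam–sand blend or silt loam and sprayed with test chemicals in a non-phytotoxic surfactant-containing solvent. Postemergence: potted plants at 2–18 cm (1–4-leaf stage) sprayed with the same formulation. After 13–15 d in greenhouse, visual rating versus controls on 0 (no effect) to 100 (complete control) scale.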

| SMILES | Plant response rating, Ryegrass, Italian [1] | Ryegrass, Italian plant response rating [1] | Plant response rating, Barnyardgrass [2] | Barnyardgrass plant response rating [2] | Plant response rating, Foxtail, Giant [3] | Foxtail, Giant plant response rating [3] | Plant response rating, Kochia [4] | Kochia plant response rating [4] | Plant response rating, Pigweed [5] | Pigweed plant response rating [5] | Plant response rating, Ragweed [6] | Ragweed plant response rating [6] | Ryegrass, Italian plant response rating [7] | Ryegrass, Italian plant response rating (0 to 100 scale) [7] | Barnyardgrass plant response rating [8] | Barnyardgrass plant response rating (0 to 100 scale) [8] | Blackgrass plant response rating [9] | Blackgrass plant response rating (0 to 100 scale) [9] | Corn plant response rating [10] | Corn plant response rating (0 to 100 scale) [10] | further results |
| --- | --- | --- | --- | --- | --- | --- | --- | --- | --- | --- | --- | --- | --- | --- | --- | --- | --- | --- | --- | --- | --- |
| O=C(CCCC(F)(F)F)c1c(Oc2ncc(Cl)cn2)cccc1C(F)(F)F [Compound 125] | 70 | 100 | 100 | 100 | 100 | 100 | 100 | 100 | 100 | 100 | 20 | 40 | 20 | 90 | 30 | 90 | 30 | 90 | 10 | 30 | Galium plant response rating [11]: 100; Galium plant response rating (0 to 100 scale) [11]: 100; Foxtail, Giant plant response rating [12]: 50; Foxtail, Giant plant response rating (0 to 100 scale) [12]: 90; Kochia plant response rating [13]: 100; Kochia plant response rating (0 to 100 scale) [13]: 100; Pigweed plant response rating [14]: 100; Pigweed plant response rating (0 to 100 scale) [14]: 100; Ragweed plant response rating [15]: 30; Ragweed plant response rating (0 to 100 scale) [15]: 40; Wheat plant response rating [16]: 20; Wheat plant response rating (0 to 100 scale) [16]: 30; Plant response rating, Barnyardgrass [17]: 45; Plant response rating, Ducksalad [18]: 70; Plant response rating, Rice [19]: 35; Plant response rating, Sedge, Umbrella [20]: 90; Plant response rating, Ragweed ([21]; 125 g ai/ha, scale of 0 to 100): 35; Plant response rating, Ragweed ([21]; 31 g ai/ha, scale 0 to 100): 10; Plant response rating, Ragweed ([21]; 62 g ai/ha, scale 0 to 100): 5 |
| CCCCC(=O)c1c(Oc2ncc(Cl)cn2)cccc1C(F)(F)F [Compound 130] | 80 | 100 | 100 | 100 | 100 | 100 | 100 | 100 | 100 | 100 | 20 | 90 | 20 | 90 | 90 | 100 | 50 | 90 | 20 | 50 | Galium plant response rating [11]: 100; Galium plant response rating (0 to 100 scale) [11]: 100; Foxtail, Giant plant response rating [12]: 40; Foxtail, Giant plant response rating (0 to 100 scale) [12]: 90; Kochia plant response rating [13]: 100; Kochia plant response rating (0 to 100 scale) [13]: 100; Pigweed plant response rating [14]: 100; Pigweed plant response rating (0 to 100 scale) [14]: 100; Ragweed plant response rating [15]: 30; Ragweed plant response rating (0 to 100 scale) [15]: 60; Wheat plant response rating [16]: 30; Wheat plant response rating (0 to 100 scale) [16]: 30; Plant response rating, Barnyardgrass [17]: 55; Plant response rating, Ducksalad [18]: 40; Plant response rating, Rice [19]: 35; Plant response rating, Sedge, Umbrella [20]: 98; Plant response rating, Ragweed ([21]; 125 g ai/ha, scale of 0 to 100): 10; Plant response rating, Ragweed ([21]; 31 g ai/ha, scale 0 to 100): 0; Plant response rating, Ragweed ([21]; 62 g ai/ha, scale 0 to 100): 5 |
| CCCC(=O)c1c(Oc2ncc(Cl)cn2)cccc1C(F)(F)F [Compound 136] | 20 | 100 | 100 | 100 | 100 | 100 | 100 | 100 | 100 | 100 | 80 | 80 | 10 | 70 | 30 | 80 | 50 | 100 | 20 | 50 | Galium plant response rating [11]: 40; Galium plant response rating (0 to 100 scale) [11]: 100; Foxtail, Giant plant response rating [12]: 30; Foxtail, Giant plant response rating (0 to 100 scale) [12]: 90; Kochia plant response rating [13]: 80; Kochia plant response rating (0 to 100 scale) [13]: 100; Pigweed plant response rating [14]: 100; Pigweed plant response rating (0 to 100 scale) [14]: 100; Ragweed plant response rating [15]: 20; Ragweed plant response rating (0 to 100 scale) [15]: 60; Wheat plant response rating [16]: 10; Wheat plant response rating (0 to 100 scale) [16]: 20; Plant response rating, Barnyardgrass [17]: 45; Plant response rating, Ducksalad [18]: 60; Plant response rating, Rice [19]: 35; Plant response rating, Sedge, Umbrella [20]: 80; Plant response rating, Ragweed ([21]; 125 g ai/ha, scale of 0 to 100): 40; Plant response rating, Ragweed ([21]; 31 g ai/ha, scale 0 to 100): 20; Plant response rating, Ragweed ([21]; 62 g ai/ha, scale 0 to 100): 0 |
